Several values for one entry are separate records, joined by “and”; a condition that tells them apart may be missing. Equal entries are not always repeated. Where two headings read alike, the source gives them in different places. Values belong to the compound of their own block, whether it stands above or below them.
Columns and labels:
[1] = Plasma exposure and PK of compound 63 in mouse plasma (HPLC-MS/MS); type: in vivo
pAMPK = pAMPK immunostaining chemiluminescence assay in Beas2B cells; type: cell-based; settings: Homo sapiens, BEAS-2B, 18 h, DMEM no glucose media, compounds 3-34, 36-44, 47-60 tested as HCl salts, read-out: efficacy (minimal compound concentration needed to increase pAMPK by 30%)
Procedure: Beas2B cells were plated in 384 white nunc plate (4000 cells per well) for overnight. Compounds were serially diluted in DMEM no glucose media using the liquid handler. Cells were washed once using Biotek EL406 before compound addition for additional 18 hours. Cells were washed and fixed with PFA before immunostained with pAMPK primary antibody and anti-Rabbit HRP secondary antibody. Finally, 25 μl of ECL reagent will be added to cells, and chemical luminescence signal will be counted using plate reader. Compounds efficacies (μM) were determined by the minimal compound concentration needed to increase pAMPK by 30%. Activity: “+” equals >10 μM; “++” equals between ≤10 μM and >1 μM; and “+++” equals ≤1 μM.

[2] = system: methicillin resistant Staphylococcus aureus (strain ATCC 33591); assay: Antimicrobial efficacy against MRSA lung infection in neutropenic BALB/c mice; type: in vivo; settings: 25 mg/kg orally once a day, days -4 to 0; lungs 24 hours after inoculation; p<0.01 compared to vehicle
Procedure: Groups of 5-10 female BALB/c mice weighing 20±2 g were used in this study. Animals were rendered immune suppressed by treatment with 250 mg/kg of cyclophosphamide IP at 4 and 2 days before infection (Day −4 and −2). Vehicle 10% DMA (N,N-dimethylacetamide):40% PEG300:50% H2O) and/or test substances were administered on days −4, −3, −2, −1 and 0.
On day 0, immediately following the final dose, animals were inoculated intranasally (0.02 mL/lung) with 1-5×10^6 colony forming units (CFU)/mouse of MRSA (ATCC 33591) after being anaesthetized by etomidate (20 mg/kg dose, IV). In addition, following the final dose, blood was collected at 0, 0.5 h, 1 h, 2 h, 4 h and 24 h from three animals of each group, via facial veins. Terminal blood samples were taken by cardiac puncture. Blood samples were drawn into K2EDTA anti-coagulant coated mini collection tubes. The blood was collected from group 1 after sacrifice as the blank for PK analysis. Samples were stored on ice for no more than one hour then centrifuged at 2500×g for 15 min at 4° C. Plasma (˜50 μL) was stored at −80° C. until analysis.
At 24 hours after inoculation, the animals were humanely euthanized with CO2 asphyxiation, and the lung tissue was harvested from each of the test animals. The tissues were homogenized in 1 mL of PBS. […]

Sample concentration, individual animals ([1]; 25 mg/kg PO QD x 5, time 0 h, 25 mg/kg): 3 ng/mL and 0 ng/mL (2×)
Sample concentration, individual animals ([1]; 25 mg/kg PO QD x 5, time 0.5 h, 25 mg/kg): 180 ng/mL and 243 ng/mL and 390 ng/mL
Sample concentration, individual animals ([1]; 25 mg/kg PO QD x 5, time 1 h, 25 mg/kg): 95 ng/mL and 120 ng/mL
Sample concentration, individual animals ([1]; 25 mg/kg PO QD x 5, time 2 h, 25 mg/kg): 16 ng/mL and 36 ng/mL and 31 ng/mL
Sample concentration, individual animals ([1]; 25 mg/kg PO QD x 5, time 4 h, 25 mg/kg): 22 ng/mL and 38 ng/mL and 18 ng/mL
Sample concentration, individual animals ([1]; 25 mg/kg PO QD x 5, time 24 h, 25 mg/kg): 7 ng/mL and 0 ng/mL and 3 ng/mL
AUC(0-inf) ([1]; BALB/c, dose PO 25 mg/kg): 622 ng·h/mL
AUC(0-t) ([1]; BALB/c, dose PO 25 mg/kg): 593 ng·h/mL
Cmax ([1]; BALB/c, dose PO 25 mg/kg): 271 ng/mL
Tmax ([1]; BALB/c, dose PO 25 mg/kg): 30 min
concentration at 0 h ([1]; BALB/c, mouse, plasma, po, 25 mg/kg, 25 mg/kg PO QD x 5, time 0 h, excluded from the PK calculation, read-out: Sample concentration, mean): 1 ng/mL
concentration at 0.5 h ([1]; BALB/c, mouse, plasma, po, 25 mg/kg, 25 mg/kg PO QD x 5, time 0.5 h, read-out: Sample concentration, mean): 271 ng/mL
concentration at 1 h ([1]; BALB/c, mouse, plasma, po, 25 mg/kg, 25 mg/kg PO QD x 5, time 1 h, read-out: Sample concentration, individual animals): 184 ng/mL
concentration at 1 h ([1]; BALB/c, mouse, plasma, po, 25 mg/kg, 25 mg/kg PO QD x 5, time 1 h, read-out: Sample concentration, mean): 133 ng/mL
concentration at 2 h ([1]; BALB/c, mouse, plasma, po, 25 mg/kg, 25 mg/kg PO QD x 5, time 2 h, read-out: Sample concentration, mean): 28 ng/mL
concentration at 4 h ([1]; BALB/c, mouse, plasma, po, 25 mg/kg, 25 mg/kg PO QD x 5, time 4 h, read-out: Sample concentration, mean): 26 ng/mL
concentration at 24 h ([1]; BALB/c, mouse, plasma, po, 25 mg/kg, 25 mg/kg PO QD x 5, time 24 h, read-out: Sample concentration, mean): 3 ng/mL
AUC/D ([1]; dose PO 25 mg/kg): 25 kg·ng·h/mL/mg
AUCExtr ([1]; dose PO 25 mg/kg): 5%
MTR ([1]; dose PO 25 mg/kg): 4.96 h
Compound: Cc1ccccc1CN(CCCOc1ccc(C(F)(F)F)cc1)Cc1cccnc1 [compound 63]
EC (30% increase) (pAMPK): ≤ 1 µM
clearance of MRSA from the lung (CFU) [2]: cleared MRSA from the lung

Compound: Cc1ccccc1CN(CC(O)COc1ccc(C(F)(F)F)cc1)C(=O)c1cn(C)cn1 (stereo not drawn) [compound 80]
EC (30% increase) (pAMPK): 1 to 10 µM

Compound: Cc1ccccc1CN(Cc1c[nH]cn1)CC(O)COc1ccc(C(F)(F)F)cc1 (stereo not drawn) [compound 69]
EC (30% increase) (pAMPK): ≤ 1 µM

Compound: Cc1ccccc1CN(CCCOc1cnc(C(F)(F)F)nc1)Cc1cccnc1 [compound 169]
EC (30% increase) (pAMPK): ≤ 1 µM

Compound: OC(COc1ccc(C(F)(F)F)cc1)CN(Cc1ccccc1)Cc1cncnc1 (stereo not drawn) [compound 13]
EC (30% increase) (pAMPK): ≤ 1 µM

Compound: [2H]C1(c2cncs2)c2ccccc2CCN1CCCOc1ccc(C(F)(F)F)cc1 (stereo not drawn) [compound 99]
EC (30% increase) (pAMPK): ≤ 1 µM

Compound: COC(=O)C1c2ccccc2CCN1CCCOc1ccc(C(F)(F)F)cc1 (stereo not drawn) [compound 187]
EC (30% increase) (pAMPK): ≤ 1 µM

Compound: Cc1ccccc1CN(Cc1c[nH]nc1-c1ccccc1)CC(O)COc1ccc(C(F)(F)F)cc1 (stereo not drawn) [compound 73]
EC (30% increase) (pAMPK): 1 to 10 µM

Compound: Cc1ccccc1CN(CCc1ccccn1)CC(O)COc1ccc(C(F)(F)F)cc1 (stereo not drawn) [compound 52]
EC (30% increase) (pAMPK): 1 to 10 µM

Compound: Cc1ccccc1CN(CC(O)COc1ccc(C(F)(F)F)cc1)C(=O)c1cscn1 (stereo not drawn) [compound 85]
EC (30% increase) (pAMPK): 1 to 10 µM

Compound: Cc1ccccc1CN(Cc1ncc[nH]1)CC(O)COc1ccc(C(F)(F)F)cc1 (stereo not drawn) [compound 36]
EC (30% increase) (pAMPK): ≤ 1 µM

Compound: CC(CNCC(O)COc1ccc(C(F)(F)F)cc1)(c1ccccc1)c1ccccc1 (stereo not drawn) [compound 12]
EC (30% increase) (pAMPK): 1 to 10 µM

Compound: FC(F)(F)c1ccc(OCCCc2nc3ccccc3cc2-c2ccccc2)cc1 [compound 92]
EC (30% increase) (pAMPK): 1 to 10 µM

Compound: O[C@H](COc1ccc(C(F)(F)F)cc1)CN(Cc1ccccc1)Cc1ccccc1 [compound 2]
EC (30% increase) (pAMPK): 1 to 10 µM

Compound: Cc1ccccc1CN(CC(O)COc1ccc(C(F)(F)F)cc1)C(=O)c1nccn1C (stereo not drawn) [compound 83]
EC (30% increase) (pAMPK): ≤ 1 µM

Compound: Cn1cncc1C(=O)N(Cc1ccccc1Cl)CC(C)(O)COc1ccc(C(F)(F)F)cc1 (stereo not drawn) [compound 201]
EC (30% increase) (pAMPK): 1 to 10 µM

Compound: Cc1ncccc1CN(Cc1cccnc1C)CC(O)COc1ccc(C(F)(F)F)cc1 (stereo not drawn) [compound 30]
EC (30% increase) (pAMPK): 1 to 10 µM

Compound: FC(F)(F)c1ccc(OCCCN2Cc3ccccc3CC2c2cncs2)cc1 (stereo not drawn) [compound 124]
EC (30% increase) (pAMPK): 1 to 10 µM

Compound: OC(COc1ccc(C(F)(F)F)cc1)CN(Cc1ccncc1)Cc1ccncc1 (stereo not drawn) [compound 41]
EC (30% increase) (pAMPK): 1 to 10 µM

Compound: FC(F)(F)c1ccc(OCCCN2CCc3ccccc3C2c2cncs2)cc1 (stereo not drawn) [compound 107]
EC (30% increase) (pAMPK): ≤ 1 µM

Compound: Cc1ccccc1CN(Cc1cccnc1)CC(O)COc1ccc(C(F)(F)F)cn1 (stereo not drawn) [compound 24]
EC (30% increase) (pAMPK): > 10 µM

Compound: CC(C)(COc1ccc(C(F)(F)F)cc1)CN(Cc1cccnc1)Cc1ccccc1C(F)(F)F [compound 197]
EC (30% increase) (pAMPK): ≤ 1 µM

Compound: Cc1ncccc1CN(Cc1cccnc1)CC(O)COc1ccc(C(F)(F)F)cc1 (stereo not drawn) [compound 28]
EC (30% increase) (pAMPK): ≤ 1 µM

Compound: CC(C)(COc1cnc(C(F)(F)F)nc1)CN(Cc1cccnc1)Cc1ccccc1C(F)(F)F [compound 196]
EC (30% increase) (pAMPK): 1 to 10 µM

Compound: OC(COc1ccc(C(F)(F)F)cc1)CN(Cc1ccccc1)C1(c2cccnc2)CC1 (stereo not drawn) [compound 48]
EC (30% increase) (pAMPK): ≤ 1 µM

Compound: FC(F)(F)c1ccc(OCCN(Cc2cncs2)Cc2ccccc2Cl)cc1 [compound 172]
EC (30% increase) (pAMPK): ≤ 1 µM

Compound: Cc1ccccc1CN(CC(O)COc1ccc(C(F)(F)F)cc1)C(C)c1nccn1C (stereo not drawn) [compound 162]
EC (30% increase) (pAMPK): > 10 µM

Compound: Cc1ccccc1CN(Cc1cc[nH]n1)CC(O)COc1ccc(C(F)(F)F)cc1 (stereo not drawn) [compound 37]
EC (30% increase) (pAMPK): 1 to 10 µM

Compound: FC(F)(F)c1ccc(OCCCN2CCc3ccccc3C2c2cccnc2)cc1 (stereo not drawn) [compound 100]
EC (30% increase) (pAMPK): ≤ 1 µM

Compound: Cc1ccccc1CN(CC(O)COc1ccc(C(F)(F)F)cc1)C(=O)c1cccnc1 (stereo not drawn) [compound 45]
EC (30% increase) (pAMPK): ≤ 1 µM

— US12428378B2, “Methods and materials for increasing level of phosphorylated AMPK protein” (University of Pittsburgh—Of the Commonwealth System of …, priority 2019, dated 2025)
